Here are results for five compounds from patent US20220119493A1, “IL-7R-ALPHA BINDING COMPOUNDS” (MEDIKINE, INC., priority 2020, published 2022).

One assay deals with T1, IL-7Rα (Homo sapiens, UniProt P16871).
T1 construct: Fc; purchased ACRObiosystems, Inc. ILB-H5258
Nature of the assay: Competitive binding ELISA bn407:NA-HRP. The note with it: bn407:NA-HRP 10 nMf; SEQ ID NOS: 520-534 with two glycines (-GG-) on the carboxyl terminus. A general note: ELISA stands for enzyme-linked immunosorbent assay.

A further assay has as its target T2, IL-7Rα subunit (Homo sapiens, UniProt P16871).
T2 construct: Fc; purchased ACRObiosystems, Inc. ILB-H5258
Description: Phage ELISA competition assay. The note with it: read-out: IC50, binding to the unique binding site on the IL-7Rα subunit.

The subject of the next assay is CD4 and CD8 T-cells. Description: Ki-67 proliferation assay in CD4 and CD8 T-cells. The class given is cell-based. Particulars: human PBMCs, 3 days; hIL-7 comparator.

As usually defined, the IC50 is the concentration that inhibits the measured activity by half. By EC50 is commonly meant the concentration that produces a half-maximal response. A low value points to an effect from little substance.

T2 sequence (P16871 21-236): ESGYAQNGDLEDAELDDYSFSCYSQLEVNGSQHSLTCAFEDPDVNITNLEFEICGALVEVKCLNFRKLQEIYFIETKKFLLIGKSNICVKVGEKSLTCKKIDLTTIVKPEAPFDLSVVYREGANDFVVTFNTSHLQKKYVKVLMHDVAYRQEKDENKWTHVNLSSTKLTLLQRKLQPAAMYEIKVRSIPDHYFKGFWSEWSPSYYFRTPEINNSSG
T1 sequence (P16871 21-236): as above

`CC[C@H](C)[C@H](NC(=O)[C@H](CCCNC(=N)N)NC(=O)[C@H](Cc1c[nH]cn1)NC(=O)[C@@H](N)C(C)C)C(=O)N1CCC[C@H]1C(=O)N[C@@H](Cc1c[nH]c2ccccc12)C(=O)N[C@H]1CSSC[C@@H](C(=O)N[C@@H](C)C(=O)N[C@@H](Cc2c[nH]c3ccccc23)C(=O)N[C@@H](CC(C)C)C(=O)N[C@@H](CCCNC(=N)N)C(=O)N[C@@H](CCC(N)=O)C(=O)N[C@@H](CCSC)C(=O)NCC(=O)NCC(=O)O)NC(=O)[C@H](CCC(N)=O)NC(=O)[C@H](CC(C)C)NC(=O)CNC(=O)CNC(=O)[C@@H]2CCCN2C(=O)[C@H](CC(=O)O)NC(=O)[C@H](CC(C)C)NC(=O)[C@H]([C@@H](C)O)NC1=O` [SEQ ID NO: 554, VHRIPWCTLDPGGLQCAWLRQMGG] came in with an IC50 at IL-7Rα of 382 nM.
As to `CSCC[C@H](NC(=O)[C@@H](N)Cc1ccc(O)cc1)C(=O)N[C@@H](C)C(=O)N[C@H]1CSSC[C@@H](C(=O)N[C@@H](CCCNC(=N)N)C(=O)N[C@@H](CC(C)C)C(=O)N[C@@H](CO)C(=O)O)NC(=O)[C@H](CC(C)C)NC(=O)[C@H](CO)NC(=O)[C@H](CC(C)C)NC(=O)CNC(=O)[C@H](CO)NC(=O)[C@H](CO)NC1=O` [compound 104], on IL-7Rα subunit, the 50% inhibitory concentration (IC50) was under 10000 nM.
As to `CC[C@H](C)[C@H](NC(=O)[C@@H]1CSSC[C@H](NC(=O)[C@@H](N)CCC(N)=O)C(=O)N[C@@H](C(C)C)C(=O)N[C@@H](Cc2c[nH]cn2)C(=O)N[C@@H](Cc2c[nH]c3ccccc23)C(=O)N[C@@H](CC(=O)O)C(=O)N[C@@H](CC(C)C)C(=O)N[C@@H](CC(=O)O)C(=O)N[C@@H]([C@@H](C)O)C(=O)N[C@@H](CC(C)C)C(=O)N[C@@H](Cc2ccccc2)C(=O)NCC(=O)N1)C(=O)N[C@@H](CCCNC(=N)N)C(=O)N[C@@H](CCC(=O)O)C(=O)N[C@@H](CCC(N)=O)C(=O)N[C@@H](CC(C)C)C(=O)N[C@@H](CCC(=O)O)C(=O)N[C@@H](CC(C)C)C(=O)O` [compound 146], the 50% inhibitory concentration (IC50) on IL-7Rα subunit was under 10000 nM.
Regarding `CC(C)C[C@@H]1NC(=O)[C@H](CO)NC(=O)CNC(=O)[C@@H]2CCCN2C(=O)[C@H](CC(=O)O)NC(=O)[C@H](CC(C)C)NC(=O)[C@H]([C@@H](C)O)NC(=O)[C@@H](NC(=O)[C@H](Cc2c[nH]c3ccccc23)NC(=O)[C@@H]2CCCN2C(=O)[C@@H](NC(=O)CNC(=O)CN)C(C)C)CSSC[C@@H](C(=O)N[C@@H](C)C(=O)N[C@@H](Cc2c[nH]c3ccccc23)C(=O)N[C@@H](Cc2ccccc2)C(=O)O)NC(=O)[C@H](CCC(N)=O)NC1=O` [compound 458], on IL-7Rα subunit, the IC50 is under 10000 nM.
For the compound “hIL-7: human interleukin-7, the natural cytokine, comparator in the functional assays”, the EC50 in the assay on CD4 and CD8 T-cells was about 1 nM.
